Assay results taken from ChEMBL document CHEMBL1641592, “Benzopyrazine derivatives: A novel class of growth factor receptor bound protein 7 antagonists” (Bioorg Med Chem, 2011).

What was measured:
[1] = molecular target: Growth factor receptor-bound protein 7 (Homo sapiens) (UniProt Q14451)
Description: Binding affinity to human GRB7 SH2-apo domain expressed in Escherichia coli BL21 (DE3) assessed as change in melting temperature at 100 uM by thermofluor based melting point shift assay

[2] = molecular target: Growth factor receptor-bound protein 7 (Homo sapiens) (UniProt Q14451); remark: listed apart in the source
Description: Binding affinity to human GRB7 SH2-apo domain expressed in Escherichia coli BL21 (DE3) assessed as change in melting temperature at 200 uM by thermofluor based melting point shift assay

MDA-MB-468 = assay: Cytotoxicity against human MDA-MB-468 cells after 4 days by SRB assay; conditions: MDA-MB-468, 96 h

Chain of Growth factor receptor-bound protein 7 (Homo sapiens) (Q14451 whole entry): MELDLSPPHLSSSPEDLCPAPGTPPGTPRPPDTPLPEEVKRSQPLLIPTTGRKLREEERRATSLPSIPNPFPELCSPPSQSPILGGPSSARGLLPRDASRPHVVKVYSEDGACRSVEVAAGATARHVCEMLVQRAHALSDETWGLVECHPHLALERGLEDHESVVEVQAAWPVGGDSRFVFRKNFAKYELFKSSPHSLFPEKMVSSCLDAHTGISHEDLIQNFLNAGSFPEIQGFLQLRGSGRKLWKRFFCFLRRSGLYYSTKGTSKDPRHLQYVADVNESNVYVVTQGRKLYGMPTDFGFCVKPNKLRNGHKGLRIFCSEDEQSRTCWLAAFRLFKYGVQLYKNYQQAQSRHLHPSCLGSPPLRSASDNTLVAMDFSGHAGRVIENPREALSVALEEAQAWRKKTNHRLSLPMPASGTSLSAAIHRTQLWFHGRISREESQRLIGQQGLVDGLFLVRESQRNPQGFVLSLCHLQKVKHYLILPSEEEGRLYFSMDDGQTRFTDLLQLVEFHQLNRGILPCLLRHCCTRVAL

Row | ΔTm [1] | ΔTm [2] | Structure (SMILES) | IC50 (MDA-MB-468)
1 | 1.35 °C | 1.85 °C | C[C@@H](O)[C@@H]1NC(=O)[C@H](CC(N)=O)NC(=O)[C@H](CC(=O)O)NC(=O)[C@H](Cc2ccc(O)cc2)NC(=O)CNC(=O)[C@@H](CCC(=O)O)NC(=O)[C@H](Cc2ccccc2)NC(=O)[C@H](Cc2c[nH]c3ccccc23)NC(=O)CSC[C@@H](C(=O)O)NC(=O)[C@@H]2CCCN2C(=O)[C@H](Cc2ccccc2)NC1=O | –
2 | 0.45 °C | 0.85 °C | COC(=O)C(=O)C(C(=O)C(=O)Nc1ccc(C(N)=O)cc1)c1nc2ccc([N+](=O)[O-])cc2nc1O (stereo not drawn) | –

Further lines, the molecule ahead of its results:

Row | Structure (SMILES) | ΔTm [1] | ΔTm [2] | IC50 (MDA-MB-468)
3 | COC(=O)C(=O)C(C(=O)C(=O)Nc1cc([N+](=O)[O-])ccc1C#N)c1nc2ccccc2nc1O (stereo not drawn) | 1.2 °C | 0.95 °C | –
4 | COC(=O)C(=O)C(C(=O)C(=O)Nc1cccc(C(C)=O)c1)c1nc2ccc([N+](=O)[O-])cc2nc1O (stereo not drawn) | 0.45 °C | 0.55 °C | –
5 | COC(=O)C(=O)C(C(=O)C(=O)Nc1cc(C)ccc1C)c1nc2ccccc2nc1O (stereo not drawn) | 0.9 °C | 0.6 °C | –
6 | COC(=O)C(=O)C(C(=O)C(=O)Nc1ccccc1C(C)=O)c1nc2ccc(C(=O)c3ccccc3)cc2nc1O (stereo not drawn) | 0.05 °C | 0.55 °C | –
7 | COC(=O)C(=O)C(C(=O)C(=O)Nc1ccccc1C(N)=O)c1nc2ccc(C(=O)c3ccccc3)cc2nc1O (stereo not drawn) | – | – | 86 µM
